What was measured:
[1] = (S)-Methoprene concentration in rat blood upon in vivo administration (radioassay/TLC); details: average of three animals
[2] = Concentration of (S)-methoprene in dog blood following oral administration (HPLC); format: in vivo, dogs; details: random-bred, whole blood, 50 mg/kg
From the text: Twelve random-bred adult dogs of various sex and medium hair coat were selected based on hair coat, health, and individual habits. The twelve dogs were grouped into two groups of six dogs each. Dog weights ranged from 22.5 kg to 35.0 kg, and the various weights and each sex were represented in each group. The dogs received a measured amount of Science Diet maintenance dog food daily and water was available. The two groups of dogs were housed separately. The dogs of Group 1 were not given any treatments, whereas those of Group 2 were each given 50 mg/kg of technical (S)-methoprene one time only at the start of the study (Day 0).
Blood samples were taken periodically by drawing the samples into 10 cc disposable syringes and transferring them to labeled 5 mL heparinized EDTA vacutainers treated with […] of paraoxon solution at a concentration of 1 x 10^-2 M. The blood samples were frozen until ready for analysis. Hair samples were clipped from the dogs on the same days that blood samples were taken, then placed in labeled freezer jars with aluminum foil seals, and frozen.
To analyze the blood samples, the samples were extracted three times with methyl t-butyl ether, evaporated, reconstituted in 1 mL of methanol, and analyzed by HPLC as in the hair analyses.

[3] = (S)-Methoprene concentration in fat of rat upon in vivo administration (radioassay/TLC); parameters: species or system Sprague-Dawley male rats
Protocol: Sprague-Dawley CD® VAF/PLUS® male rats were purchased from Charles River Breeding Laboratories, Inc., Portage, Michigan, USA. The body weights of the rats averaged 200 g at the time of dose administration. The rats were quarantined for five days before use, except for jugular vein-cannulated rats, to which doses were administered 1 to 3 days after receipt. The rats were divided into three groups for dosage with ^14C-(S)-methoprene: • Group A received a single dose of 10 mg/kg of the ovicide through intravenous injection via the jugular vein. Three rats each were sacrificed at 0.5 hour, 1 hour, 2 hours, 3 hours, 4 hours, 5 hours, 6 hours, and 7 hours after dosing. • Group B received a single dose 10 mg/kg of the ovicide through oral administration by gavage dosing. Three rats each were sacrificed at 1 hour, 2 hours, 3 hours, 4 hours, 5 hours, 6 hours, 7 hours, and 8 hours after dosing. • Group C received a single dose 100 mg/kg of the ovicide through oral administration by gavage dosing. Three rats each were sacrificed at 1 hour, 2 hours, 3 hours, 4 hours, 5 hours, 6 hours, 7 hours, and 8 hours after dosing. After dosing the rats were house individually in cages. Daily room temperature was maintained between 69°C and […] and the relative humidity was between 40% and 70%. All rats had free access to food and fresh tap water.
For analyses of the ovicide in fat, visceral fat was collected from the sacrificed rats. The fat sample from each rat was thoroughly mixed 1:1 with cellulose powder, and homogenized with a few drops of water. A portion (0.5 to 1 g) of each fat sample was extracted with 10 mL of a mixture of hexane/diethyl ether (1:1), which was treated vigorously on a sonicator for four minutes, then vortex mixed for two minutes and centrifuged. This procedure was repeated twice. The extracts were then combined, radioassayed, rotary evaporated, and concentrated under nitrogen for TLC analysis. A small amount of methanol was added to precipitate the fat to improve the TLC separation. Radioassays and TLC analyses were performed in the same manner as for the blood samples.

With `COC(C)(C)CCC[C@H](C)C/C=C/C(C)=C/C(=O)OC(C)C` [(S)-Methoprene, 1-isopropyl (E,E)-11-methoxy-3,7,11-trimethyl dodecadi-2,4-enoate] as the compound, how does the “(S)-Methoprene Concentration in Blood” value ([1]; Group A 10 mg/kg I.V., 0.5 hours) read?
The value was 0.703 ± 0.307 ppm.

And the “(S)-Methoprene Concentration in Blood” value ([1]; Group A 10 mg/kg I.V., 1 hour)?
The value was 0.345 ± 0.107 ppm.

And the “(S)-Methoprene Concentration in Blood” value ([1]; Group A 10 mg/kg I.V., 2 hours)?
The value was 0.113 ± 0.028 ppm.

And the “(S)-Methoprene Concentration in Blood” value ([1]; Group A 10 mg/kg I.V., 3 hours)?
Its value is 0.079 ± 0.002 ppm.

What about the “(S)-Methoprene Concentration in Blood” value ([1]; Group A 10 mg/kg I.V., 4 hours) of the same compound?
The value was 0.066 ± 0.028 ppm.

What about the “(S)-Methoprene Concentration in Blood” value ([1]; Group A 10 mg/kg I.V., 5 hours) of the same compound?
The value was 0.048 ± 0.001 ppm.

What about the “(S)-Methoprene Concentration in Blood” value ([1]; Group A 10 mg/kg I.V., 6 hours) of the same compound?
The value was 0.046 ± 0.027 ppm.

What about the “(S)-Methoprene Concentration in Blood” value ([1]; Group A 10 mg/kg I.V., 7 hours) of the same compound?
Its value is 0.019 ± 0.008 ppm.

And the “(S)-Methoprene Concentration in Blood” value ([1]; Group B 10 mg/kg oral, 1 hour)?
The value was 0.112 ± 0.038 ppm.

What about the “(S)-Methoprene Concentration in Blood” value ([1]; Group B 10 mg/kg oral, 2 hours) of the same compound?
Its value is 0.264 ± 0.122 ppm.

And the “(S)-Methoprene Concentration in Blood” value ([1]; Group B 10 mg/kg oral, 3 hours)?
Its value is 0.202 ± 0.065 ppm.

What about the “(S)-Methoprene Concentration in Blood” value ([1]; Group B 10 mg/kg oral, 4 hours) of the same compound?
The value was 0.130 ± 0.066 ppm.

What about the “(S)-Methoprene Concentration in Blood” value ([1]; Group B 10 mg/kg oral, 5 hours) of the same compound?
The value was 0.052 ± 0.026 ppm.

What about the “(S)-Methoprene Concentration in Blood” value ([1]; Group B 10 mg/kg oral, 6 hours) of the same compound?
The value was 0.045 ± 0.014 ppm.

What about the “(S)-Methoprene Concentration in Blood” value ([1]; Group B 10 mg/kg oral, 7 hours) of the same compound?
The value was 0.020 ± 0.005 ppm.

And the “(S)-Methoprene Concentration in Blood” value ([1]; Group B 10 mg/kg oral, 8 hours)?
The value was 0.021 ± 0.009 ppm.

What about the “(S)-Methoprene Concentration in Blood” value ([1]; Group C 100 mg/kg oral, 1 hour) of the same compound?
The value was 0.165 ± 0.070 ppm.

And the “(S)-Methoprene Concentration in Blood” value ([1]; Group C 100 mg/kg oral, 2 hours)?
Its value is 3.487 ± 1.324 ppm.

What about the “(S)-Methoprene Concentration in Blood” value ([1]; Group C 100 mg/kg oral, 3 hours) of the same compound?
The value was 1.302 ± 0.409 ppm.

What about the “(S)-Methoprene Concentration in Blood” value ([1]; Group C 100 mg/kg oral, 4 hours) of the same compound?
Its value is 1.504 ± 0.533 ppm.

And the “(S)-Methoprene Concentration in Blood” value ([1]; Group C 100 mg/kg oral, 5 hours)?
Its value is 0.930 ± 0.449 ppm.

And the “(S)-Methoprene Concentration in Blood” value ([1]; Group C 100 mg/kg oral, 6 hours)?
Its value is 0.527 ± 0.341 ppm.

What about the “(S)-Methoprene Concentration in Blood” value ([1]; Group C 100 mg/kg oral, 7 hours) of the same compound?
The value was 0.608 ± 0.292 ppm.

And the “(S)-Methoprene Concentration in Blood” value ([1]; Group C 100 mg/kg oral, 8 hours)?
The value was 0.483 ± 0.221 ppm.

What about the concentration at 1 day ([2]; Dog #60, oral 50 mg/kg one time on Day 0, day 1) of the same compound?
Its concentration at 1 day is 117 ng/g.

What about the concentration at 3 day ([2]; Dog #60, oral 50 mg/kg one time on Day 0, day 3) of the same compound?
The concentration at 3 day was 36 ng/g.

And the concentration at 1 day ([2]; Dog #98, oral 50 mg/kg one time on Day 0, day 1)?
Its concentration at 1 day is 97.2 ng/g.

What about the concentration at 1 day ([2]; Dog #528, oral 50 mg/kg one time on Day 0, day 1) of the same compound?
The concentration at 1 day was 165 ng/g.

And the concentration at 3 day ([2]; Dog #528, oral 50 mg/kg one time on Day 0, day 3)?
Its concentration at 3 day is 63.6 ng/g.

And the concentration at 1 day ([2]; Dog #529, oral 50 mg/kg one time on Day 0, day 1)?
Its concentration at 1 day is 172 ng/g.

And the concentration at 3 day ([2]; Dog #529, oral 50 mg/kg one time on Day 0, day 3)?
The concentration at 3 day was 52.1 ng/g.

And the concentration at 7 day ([2]; Dog #529, oral 50 mg/kg one time on Day 0, day 7)?
The concentration at 7 day was 55.7 ng/g.

And the concentration at 1 day ([2]; Dog #534, oral 50 mg/kg one time on Day 0, day 1)?
Its concentration at 1 day is 146 ng/g.

What about the concentration at 3 day ([2]; Dog #534, oral 50 mg/kg one time on Day 0, day 3) of the same compound?
The concentration at 3 day was 94.2 ng/g.

What about the concentration at 5 day ([2]; Dog #534, oral 50 mg/kg one time on Day 0, day 5) of the same compound?
Its concentration at 5 day is 66.8 ng/g.

And the concentration at 1 day ([2]; Dog #535, oral 50 mg/kg one time on Day 0, day 1)?
The concentration at 1 day was 239 ng/g.

And the concentration at 3 day ([2]; Dog #535, oral 50 mg/kg one time on Day 0, day 3)?
The concentration at 3 day was 93.3 ng/g.

What about the concentration at 5 day ([2]; Dog #535, oral 50 mg/kg one time on Day 0, day 5) of the same compound?
Its concentration at 5 day is 47.7 ng/g.

What about the “(S)-Methoprene Concentration in Fat” value ([3]; Group A 10 mg/kg I.V., 0.5 hours, average of three animals) of the same compound?
The value was 4.193 ± 1.566 ppm.

What about the “(S)-Methoprene Concentration in Fat” value ([3]; Group A 10 mg/kg I.V., 1 hour, average of three animals) of the same compound?
The value was 6.936 ± 3.259 ppm.

What about the “(S)-Methoprene Concentration in Fat” value ([3]; Group A 10 mg/kg I.V., 2 hours, average of three animals) of the same compound?
The value was 5.929 ± 1.197 ppm.

And the “(S)-Methoprene Concentration in Fat” value ([3]; Group A 10 mg/kg I.V., 3 hours, average of three animals)?
The value was 5.233 ± 0.457 ppm.

What about the “(S)-Methoprene Concentration in Fat” value ([3]; Group A 10 mg/kg I.V., 4 hours, average of three animals) of the same compound?
The value was 8.179 ± 3.532 ppm.

And the “(S)-Methoprene Concentration in Fat” value ([3]; Group A 10 mg/kg I.V., 5 hours, average of three animals)?
Its value is 7.596 ± 3.990 ppm.

What about the “(S)-Methoprene Concentration in Fat” value ([3]; Group A 10 mg/kg I.V., 6 hours, average of three animals) of the same compound?
Its value is 6.734 ± 2.209 ppm.

And the “(S)-Methoprene Concentration in Fat” value ([3]; Group A 10 mg/kg I.V., 7 hours, average of three animals)?
The value was 8.077 ± 1.082 ppm.

What about the “(S)-Methoprene Concentration in Fat” value ([3]; Group B 10 mg/kg oral, 1 hour, average of three animals) of the same compound?
The value was 0.272 ± 0.103 ppm.

What about the “(S)-Methoprene Concentration in Fat” value ([3]; Group B 10 mg/kg oral, 2 hours, average of three animals) of the same compound?
Its value is 1.138 ± 0.388 ppm.

And the “(S)-Methoprene Concentration in Fat” value ([3]; Group B 10 mg/kg oral, 3 hours, average of three animals)?
The value was 1.715 ± 0.680 ppm.

And the “(S)-Methoprene Concentration in Fat” value ([3]; Group B 10 mg/kg oral, 4 hours, average of three animals)?
Its value is 2.327 ± 1.090 ppm.

And the “(S)-Methoprene Concentration in Fat” value ([3]; Group B 10 mg/kg oral, 5 hours, average of three animals)?
Its value is 2.980 ± 0.657 ppm.

What about the “(S)-Methoprene Concentration in Fat” value ([3]; Group B 10 mg/kg oral, 6 hours, average of three animals) of the same compound?
Its value is 3.369 ± 0.814 ppm.

And the “(S)-Methoprene Concentration in Fat” value ([3]; Group B 10 mg/kg oral, 7 hours, average of three animals)?
Its value is 2.921 ± 1.345 ppm.

What about the “(S)-Methoprene Concentration in Fat” value ([3]; Group B 10 mg/kg oral, 8 hours, average of three animals) of the same compound?
Its value is 2.408 ± 0.702 ppm.

And the “(S)-Methoprene Concentration in Fat” value ([3]; Group C 100 mg/kg oral, 1 hour, average of two animals)?
The value was 1.060 ± 0.270 ppm.

What about the “(S)-Methoprene Concentration in Fat” value ([3]; Group C 100 mg/kg oral, 2 hours, average of three animals) of the same compound?
The value was 14.726 ± 3.371 ppm.

And the “(S)-Methoprene Concentration in Fat” value ([3]; Group C 100 mg/kg oral, 3 hours, average of three animals)?
Its value is 22.868 ± 3.322 ppm.

What about the “(S)-Methoprene Concentration in Fat” value ([3]; Group C 100 mg/kg oral, 4 hours, average of three animals) of the same compound?
The value was 45.316 ± 16.910 ppm.

And the “(S)-Methoprene Concentration in Fat” value ([3]; Group C 100 mg/kg oral, 5 hours, average of three animals)?
The value was 38.420 ± 2.765 ppm.

What about the “(S)-Methoprene Concentration in Fat” value ([3]; Group C 100 mg/kg oral, 6 hours, average of three animals) of the same compound?
The value was 41.898 ± 11.568 ppm.

What about the “(S)-Methoprene Concentration in Fat” value ([3]; Group C 100 mg/kg oral, 7 hours, average of three animals) of the same compound?
The value was 39.393 ± 17.952 ppm.

And the “(S)-Methoprene Concentration in Fat” value ([3]; Group C 100 mg/kg oral, 8 hours, average of three animals)?
Its value is 47.162 ± 20.116 ppm.
